For experiment [1], the system named is human PBMCs. The format is cell-based. The conditions noted are these: With Cytofix/Cytoperm and trypsination, BC20.
The test system of experiment [2] is DC-cells. Description: Cell penetration assay: staining for biotinylated peptides, dendritic cells gated as CD11c+. The conditions noted are these: low concentration of peptides (208 uM). In kind it is cell-based, human. How it is done: A set of peptides were biotinylated on N-terminal, and different combinations of aminoacids, with respect to length and type, were added to the sequence box X^1, X^3 and X^4 in the peptides as illustrated by the diagram below. The peptides were tested on cells grown from one individual blood donor.
96-well U-bottom polystyrene plates (NUNC, cat no: 163320) were used for staining of human PBMCs. Briefly, 8 ul of N- or C-terminally biotinylated peptides according to table 1 or table 2 (i.e. 5 mM, 2.5 mM & 1.25 mM tested for each peptide) were incubated at 37° C. for 2 h with 40 ul of PBMC (12.5×10^6 cells/ml) from blood donors. Cells were then washed 3× with 150 ul of Cellwash (BD, cat no: 349524), followed by resuspension of each cell pellet with 100 ul of Trypsin-EDTA (Sigma, cat no: T4424), then incubated at 37° C. for 5 min. Trypsinated cells were then washed 3× with 150 ul of Cellwash (BD, cat no: 349524), followed by resuspension with BD Cytofix/Cytoperm™ plus (BD, cat no: 554715), then incubated at 4° C. for 20 min according to manufacturer. Cells were then washed 2× with 150 ul PermWash (BD, cat no: 554715). Cells were then stained with Streptavidin-APC (BD, cat no: 554067) & Anti-hCD11c (eBioscience, cat no: 12-0116) according to manufacturer at 4° C. for 30 min aiming to visualize biotinylated peptides & dendritic cells, respectively. Cells were then washed 3× with 150 ul PermWash, followed by resuspension in staining buffer (BD, cat no: 554656) before flow cytometry. Dendritic cells were gated as CD11c+ events outside lymphocyte region (i.e. higher FSC & SSC signals than lymphocytes). 200 000 total cells were acquired on a FACSCanto II flow cytometer with HTS loader, and histograms for both total cells & dendritic cells with respect to peptide-fluorescence (i.e. GeoMean) were prepared.
As shown in table 4 the peptides according to the invention had the ability to allocate through the cell membrane.

Experiment [3] has as its system HLA-A1. Kind of experiment: REVEAL binding assay. The conditions noted are these: score as percentage of the signal generated by the positive control peptide.
Experiment [4] has as its system HLA-A24. Kind of experiment: REVEAL binding assay. Conditions: score as percentage of the signal generated by the positive control peptide.
The test system of experiment [5] is HLA-A29. Description: REVEAL binding assay. Conditions: score as percentage of the signal generated by the positive control peptide.
Experiment [6] has as its system HLA-B8. Kind of experiment: REVEAL binding assay. Conditions: score as percentage of the signal generated by the positive control peptide.
Experiment [7] relates to HLA-B14. Description: REVEAL binding assay. The conditions noted are these: score as percentage of the signal generated by the positive control peptide.
For experiment [8], the system named is HLA-B15. Kind of experiment: REVEAL binding assay. Conditions: score as percentage of the signal generated by the positive control peptide.
Experiment [9] relates to HLA-B35. Description: REVEAL binding assay. Conditions: score as percentage of the signal generated by the positive control peptide.
Experiment [10] relates to HLA-B40. Description: REVEAL binding assay. Conditions: score as percentage of the signal generated by the positive control peptide. Here is the method: Binding properties to HLA for the ninemers listed in table 6 were tested for the following HLA-classes:
HLA-A1, HLA-A2, HLA-A3, HLA-A11, HLA-A24, HLA-A29, HLA-B7, HLA-B8, HLA-B14, HLA-B15, HLA-B27, HLA-B35, HLA-B40.
The peptides were synthesized as a Prospector PEPscreen®: Custom Peptide Library. Peptides 8-15 amino acids in length were synthesized in 0.5-2 mg quantities with high average purity. Quality control by MALDI-TOF Mass Spectrometry was carried out on 100% of samples.
The REVEAL™ binding assay determined the ability of each candidate peptide to bind to one or more MHC class I alleles and stabilizing the MHC-peptide complex. By comparing the binding to that of high and intermediate affinity T cell epitopes, the most likely immunogenic peptides in a protein sequence can be identified. Detection is based on the presence or absence of the native conformation of the MHC-peptide complex. Each peptide is given a score relative to the positive control peptide, which is a known T cell epitope. The score of the test peptide is reported quantitatively as a percentage of the signal generated by the positive control peptide, and the peptide is indicated as having a putative pass or fail result. Assay performance is confirmed by including an intermediate control peptide that is known to bind with weaker affinity to the allele under investigation.

Read-outs that look alike come from different tables or passages of the source.

On to RGYIPLVGAPLGRRVARALAHGVRV [SP3], for which the “Geomean value (peptide-fluorescence)” value was 4308 in [1] (concentration 104 μM), 10788 in [1] (concentration 208 μM), 25905 in experiment [1] (concentration 417 μM) and 40456 in [1] (concentration 833 μM). The “Results on DC-cells (geomean peptide-fluorescence)” value (shortened to “Results on DC-cells”) is recorded as 9480 in experiment [2] (BC 16) and 10573 in experiment [2] (BC43).

Turning to EEGYIPLVGAPLGRRVARALAHGVRV [SP16], the “Geomean value (peptide-fluorescence)” value is recorded as 505 in [1] (concentration 104 μM), 1260 in experiment [1] (concentration 208 μM), 2240 in experiment [1] (concentration 417 μM) and 4558 in experiment [1] (concentration 833 μM). Moreover, the “Results on DC-cells” value in experiment [2] (BC 16) was 5730; in experiment [2] (BC43), 3656.

Regarding RRGYIPLVGAPLGRRRVARALAHGVRV [SP6], the “Geomean value (peptide-fluorescence)” value turned out to be 1850 in experiment [1] (concentration 104 μM), 6514 in [1] (concentration 208 μM), 22195 in experiment [1] (concentration 417 μM) and 32577 in [1] (concentration 833 μM). The “Results on DC-cells” value was found to be 10233 in experiment [2] (BC 16) and 14468 in [2] (BC43).

In the case of RGYIPLVGAPLGRRRVARALAHGVRVR [SP4], the “Geomean value (peptide-fluorescence)” value in [1] (concentration 104 μM) came to 2946; in experiment [1] (concentration 208 μM), 7540; in experiment [1] (concentration 417 μM) it was 28008; in experiment [1] (concentration 833 μM) it was 41491. Moreover, the “Results on DC-cells” value is on record as 10751 in [2] (BC 16) and 17372 in [2] (BC43).

As to RRGYIPLVGAPLGBGRVARALAHGVRV [SP2], the “Geomean value (peptide-fluorescence)” value was found to be 1211 in [1] (concentration 104 μM), 5486 in experiment [1] (concentration 417 μM) and 3136 in experiment [1] (concentration 833 μM). Moreover, the entries for the “Results on DC-cells” value in experiment [2] (BC 16) and in experiment [2] (BC43) were 6677 and 6112, respectively.

Turning to WWGYIPLVGAPLGRRVARALAHGVRV [SP13], the entries for the “Geomean value (peptide-fluorescence)” value in [1] (concentration 208 μM), in experiment [1] (concentration 417 μM) and in [1] (concentration 833 μM) were 332, 394 and 568, respectively. In addition, the “Results on DC-cells” value in experiment [2] (BC 16) was found to be 28539; in experiment [2] (BC43), 9129.

As for WGYIPLVGAPLGRRVARALAHGVRV [SP12], the “Geomean value (peptide-fluorescence)” value was 4316 in experiment [1] (concentration 104 μM), 8679 in experiment [1] (concentration 208 μM), 10869 in experiment [1] (concentration 417 μM) and 11089 in experiment [1] (concentration 833 μM). In addition, the “Results on DC-cells” value in experiment [2] (BC 16) is given as 59274; in experiment [2] (BC43), 31222.

For the sequence RRGYIPLVGAPLGLRRVARALAHGVRV [SP17], the “Geomean value (peptide-fluorescence)” value in experiment [1] (concentration 104 μM) was 1500; in experiment [1] (concentration 208 μM), 12244; in [1] (concentration 417 μM), 29967; in experiment [1] (concentration 833 μM), 30248. Besides, the “Results on DC-cells” value in [2] (BC 16) came to 67428.

Turning to RRRGYIPLVGAPLGBRVARALAHGVRV [SP8], the “Geomean value (peptide-fluorescence)” value worked out at 2917 in experiment [1] (concentration 104 μM), 9617 in experiment [1] (concentration 208 μM), 28606 in [1] (concentration 417 μM) and 31976 in [1] (concentration 833 μM). Also, the “Results on DC-cells” value was 15379 in [2] (BC 16) and 17836 in experiment [2] (BC43).

In the case of RGYIPLVGAPLGKKKVARALAHGVRV [SP9], the “Geomean value (peptide-fluorescence)” value in experiment [1] (concentration 104 μM) was 1268; in experiment [1] (concentration 208 μM), 2945; in experiment [1] (concentration 417 μM), 6060; in [1] (concentration 833 μM), 11344. Further, the “Results on DC-cells” value in experiment [2] (BC 16) is on record as 8356; in [2] (BC43) it was 10084.

EEGYIPLVGAPLGEEVARALAHGVRV [SP14]: the “Geomean value (peptide-fluorescence)” value in experiment [1] (concentration 104 μM) was found to be 62; in [1] (concentration 208 μM) it was 392; in experiment [1] (concentration 417 μM), 682; in experiment [1] (concentration 833 μM), 1059. Also, the “Results on DC-cells” value in experiment [2] (BC 16) is given as 3704; in experiment [2] (BC43), 1629.

For RRGPVVHLTLRGRRGQAGDDFS [SP20], the “Geomean value (peptide-fluorescence)” value is 445 in [1] (concentration 104 μM), 1268 in experiment [1] (concentration 208 μM), 2457 in experiment [1] (concentration 417 μM) and 7319 in experiment [1] (concentration 833 μM). Further, the entries for the “Results on DC-cells” value in experiment [2] (BC 16) and in [2] (BC43) were 19051 and 3383, respectively.

On to KKGYIPLVGAPLGKKVARALAHGVRV [SP11], for which the “Geomean value (peptide-fluorescence)” value is 601 in experiment [1] (concentration 104 μM), 1277 in [1] (concentration 208 μM), 3562 in [1] (concentration 417 μM) and 8262 in experiment [1] (concentration 833 μM). Also, the “Results on DC-cells” value amounted to 6490 in experiment [2] (BC 16) and 13230 in [2] (BC43).

Take RRGYIPLVGAPLGRRVARALAHGVRV [SP5]: the “Geomean value (peptide-fluorescence)” value is recorded as 6152 in [1] (concentration 104 μM), 19065 in experiment [1] (concentration 208 μM), 46060 in experiment [1] (concentration 417 μM) and 40534 in experiment [1] (concentration 833 μM). Besides, the “Results on DC-cells” value amounted to 21358 in experiment [2] (BC 16) and 29146 in experiment [2] (BC43).

Turning to RRGPVVHLTLRRRGQAGDDFS [SP19], the “Geomean value (peptide-fluorescence)” value in experiment [1] (concentration 104 μM) is 1625; in experiment [1] (concentration 208 μM), 3466; in experiment [1] (concentration 417 μM), 7201; in experiment [1] (concentration 833 μM), 17018. For the same sequence, the “Results on DC-cells” value in experiment [2] (BC 16) was found to be 6522; in experiment [2] (BC43), 6536.

On to RLGVRATRK, for which the “REVEAL binding score, HLA-type A1” value in experiment [3] came out at 20.39%. Besides, the “REVEAL binding score, HLA-type A24” value in [4] is reported as 0.28%. Moreover, the “REVEAL binding score, HLA-type A29” value in experiment [5] stood at 12.83%. In [6], the “REVEAL binding score, HLA-type B8” value was found to be 10.21%. Further, the “REVEAL binding score, HLA-type B14” value in [7] is 0.07%. Further, in experiment [8], the “REVEAL binding score, HLA-type B15” value is listed as 11.74%. Besides, in experiment [9], the “REVEAL binding score, HLA-type B35” value was 2.83%. For the same sequence, the “REVEAL binding score, HLA-type B40” value in [10] was 23.05%.

SFSIELLAL: the “REVEAL binding score, HLA-type B40” value in [10] is reported as 21.04%.

Regarding BRGYIPLVGAPLGRRVARALAHGVRV [SP7], the “Geomean value (peptide-fluorescence)” value in experiment [1] (concentration 104 μM) is recorded as 2766; in experiment [1] (concentration 208 μM), 10481; in [1] (concentration 417 μM), 30503; in experiment [1] (concentration 833 μM) it was 47922. The “Results on DC-cells” value in experiment [2] (BC 16) worked out at 16064; in experiment [2] (BC43), 21414.

As for RRGPVVHLTLRRRGQAGDDFS [SP18], the “Geomean value (peptide-fluorescence)” value in experiment [1] (concentration 104 μM) worked out at 1038; in experiment [1] (concentration 208 μM) it was 1971; in experiment [1] (concentration 417 μM), 1334; in experiment [1] (concentration 833 μM), 4869. Moreover, the “Results on DC-cells” value is on record as 5545 in experiment [2] (BC 16) and 7751 in experiment [2] (BC43).

The values above are taken from patent US9550811B2, “Peptide scaffold design” (BIONOR IMMUNO AS, priority 2010, dated 2017).
